{"source": "patent US20040121316A1", "about": "(priority 2002, published 2004)", "key": {"[1]": {"molecular_target": "porcine liver carboxylesterase (PLCE) (Sus scrofa, UniProt Q29550)", "sequence (Q29550 whole entry)": "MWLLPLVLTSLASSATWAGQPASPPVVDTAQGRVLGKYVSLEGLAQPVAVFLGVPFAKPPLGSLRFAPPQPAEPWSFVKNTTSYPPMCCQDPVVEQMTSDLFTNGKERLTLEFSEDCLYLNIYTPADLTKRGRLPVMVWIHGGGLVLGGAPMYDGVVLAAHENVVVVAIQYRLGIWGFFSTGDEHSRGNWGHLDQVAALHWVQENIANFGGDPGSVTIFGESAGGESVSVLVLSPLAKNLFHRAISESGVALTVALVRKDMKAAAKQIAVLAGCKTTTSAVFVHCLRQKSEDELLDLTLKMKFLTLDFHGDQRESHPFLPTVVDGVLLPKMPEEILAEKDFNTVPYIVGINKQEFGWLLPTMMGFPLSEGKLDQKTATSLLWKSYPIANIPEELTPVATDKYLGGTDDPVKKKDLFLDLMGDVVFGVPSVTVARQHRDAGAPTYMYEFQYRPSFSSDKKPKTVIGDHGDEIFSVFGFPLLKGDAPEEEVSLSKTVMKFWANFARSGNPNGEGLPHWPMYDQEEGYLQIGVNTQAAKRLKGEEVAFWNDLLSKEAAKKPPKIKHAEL", "type": "biochemical"}, "[2]": {"molecular_target": "GS-7340 Ester Hydrolase (Homo sapiens, UniProt P10619)", "sequence (P10619 29-480)": "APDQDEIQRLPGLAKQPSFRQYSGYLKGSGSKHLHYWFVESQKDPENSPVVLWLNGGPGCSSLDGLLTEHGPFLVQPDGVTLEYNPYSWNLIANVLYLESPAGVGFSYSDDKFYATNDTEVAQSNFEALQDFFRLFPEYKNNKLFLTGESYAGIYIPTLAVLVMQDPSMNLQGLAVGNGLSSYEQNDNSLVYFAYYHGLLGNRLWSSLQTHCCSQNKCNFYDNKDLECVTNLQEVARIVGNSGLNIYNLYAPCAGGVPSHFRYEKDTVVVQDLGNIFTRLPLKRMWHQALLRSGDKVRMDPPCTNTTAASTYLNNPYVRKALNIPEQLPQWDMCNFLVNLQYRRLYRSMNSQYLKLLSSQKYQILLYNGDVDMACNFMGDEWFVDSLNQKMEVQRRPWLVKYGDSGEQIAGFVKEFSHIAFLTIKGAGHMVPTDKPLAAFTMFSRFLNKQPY", "type": "biochemical"}, "[3]": {"molecular_target": "human leukocyte elastase (huLE) (Homo sapiens, UniProt P08246)", "sequence (P08246 30-267)": "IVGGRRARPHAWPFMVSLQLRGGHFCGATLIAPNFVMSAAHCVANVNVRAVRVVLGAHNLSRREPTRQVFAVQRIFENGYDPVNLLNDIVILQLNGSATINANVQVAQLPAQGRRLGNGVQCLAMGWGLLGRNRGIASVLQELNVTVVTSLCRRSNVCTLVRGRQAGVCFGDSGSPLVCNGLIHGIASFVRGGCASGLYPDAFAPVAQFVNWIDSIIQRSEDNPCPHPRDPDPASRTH", "test": "biochemical", "settings": "IC50 (μM) huLE"}, "[4]": {"system": "MT-2 cells"}, "[5]": {"test": "not given", "remark": "listed apart in the source"}, "[6]": {"system": "MT-2 cells, stimulated and quiescent PBMC"}, "[7]": {"system": "WT HIV-1", "test": "microbe, parasite or virus in culture", "type": "cell-based", "settings": "XTT-based cytopathic assay; read-out: EC50 WT HIV-1"}, "[8]": {"system": "PBMC in human whole blood"}, "[9]": {"system": "quiescent PBMC"}, "[10]": {"system": "MT-2 cells", "remark": "listed apart in the source"}, "[11]": {"test": "not given", "remark": "listed apart in the source"}, "[12]": {"system": "recombinant HIV-1 strains with resistance mutations in the protease gene", "test": "Cross-Resistance Profile Assay, whole panel", "type": "cell-based"}, "[13]": {"system": "recombinant HIV-1 46I 84A", "test": "Cross-Resistance Profile Assay", "type": "cell-based", "settings": "protease mutations 46I 84A"}, "[14]": {"system": "recombinant HIV-1 10R 46I 82T 84V", "test": "Cross-Resistance Profile Assay", "type": "cell-based", "settings": "protease mutations 10R 46I 82T 84V"}, "[15]": {"system": "recombinant HIV-1 46I 47V 50V", "test": "microbe, parasite or virus in culture", "type": "cell-based", "settings": "protease mutations 46I 47V 50V"}, "[16]": {"system": "mutant HIV-1 I84V/L90M", "test": "Resistance Evaluation, I84V/L90M fold change", "type": "cell-based", "settings": "EC50 of mutant I84V/L90M relative to wild type; class symbols"}, "[17]": {"system": "recombinant HIV-1 10F 46I 71V 82T 90M", "test": "Cross-Resistance Profile Assay", "type": "cell-based", "settings": "protease mutations 10F 46I 71V 82T 90M"}, "[18]": {"system": "wild-type HIV-1 strain IIIB", "test": "microbe, parasite or virus in culture", "type": "cell-based", "settings": "Human immunodeficiency virus 1, IIIB"}, "[19]": {"system": "recombinant HIV-1 10I 84V 71V 73S 90M", "test": "microbe, parasite or virus in culture", "type": "cell-based", "settings": "protease mutations 10I 84V 71V 73S 90M"}, "[20]": {"molecular_target": "T1, recombinant HIV-1 protease (Human immunodeficiency virus type 1 group M subtype B, UniProt P04585)", "T1 construct": "Enzyme: recombinant HIV-1 protease expressed in E.Coli; purchased Bachem California, Inc. H-9040; host or cells: E. coli", "test": "biochemical", "settings": "Ki"}, "[21]": {"system": "recombinant HIV-1 48V 54V 71V 82S", "test": "microbe, parasite or virus in culture", "type": "cell-based", "settings": "protease mutations 48V 54V 71V 82S"}, "[22]": {"system": "recombinant HIV-1 10I 48V 71V 82A 90M", "test": "microbe, parasite or virus in culture", "type": "cell-based", "settings": "protease mutations 10I 48V 71V 82A 90M"}, "[23]": {"system": "recombinant HIV-1 54V 71V 82S", "test": "Cross-Resistance Profile Assay", "type": "cell-based", "settings": "protease mutations 54V 71V 82S"}, "[24]": {"system": "recombinant HIV-1 10I 48V 54V 82A", "test": "microbe, parasite or virus in culture", "type": "cell-based", "settings": "protease mutations 10I 48V 54V 82A"}, "[25]": {"system": "recombinant HIV-1 30N 50S 82I 88D", "test": "microbe, parasite or virus in culture", "type": "cell-based", "settings": "protease mutations 30N 50S 82I 88D"}}, "note": "Read-outs that look alike come from different tables or passages of the source.", "data": [{"smiles": "O=c1oc(Cl)c(Cl)c2ccccc12", "note": "[3,4-dichloroisocoumarin]", "values": [{"measurement": "IC50", "setting": "[1]", "value": 250, "unit": "µM"}, {"measurement": "IC50", "setting": "[1]; read-out: IC50 (μM) PLCE", "value": 250, "unit": "µM"}, {"measurement": "Relative Activity (%)", "setting": "[2]; 1 µM", "value": 100, "unit": "%"}, {"measurement": "Relative Activity (%)", "setting": "[2]; 10 µM", "value": 25, "unit": "%"}, {"measurement": "Relative Activity (%)", "setting": "[2]; 100 µM", "value": 5, "unit": "%"}, {"measurement": "Relative Activity (%)", "setting": "[2]; 1000 µM", "value": "<2", "unit": "%"}, {"measurement": "IC50", "setting": "[3]", "value": 3, "unit": "µM"}]}, {"smiles": "COc1ccc(S(=O)(=O)N(CC(C)C)C[C@@H](O)[C@H](Cc2ccc(P(=O)(O)O)cc2)NC(=O)O[C@H]2CO[C@H]3OCC[C@H]32)cc1", "note": "[Compound 27]", "values": [{"measurement": "CC50", "setting": "[4]", "value": "> 100", "unit": "µM"}]}, {"smiles": "CCOP(=O)(OCC)c1ccc(CC(NC(=O)OC2COC3OCCC23)C(O)CN(CC(C)C)S(=O)(=O)c2ccc(OC)cc2)cc1", "note": "(centres unmarked) [Compound 28]", "values": [{"measurement": "CC50", "setting": "[4]", "value": 70, "unit": "µM"}]}, {"smiles": "CCCCOC(=O)C(C)NP(=O)(COc1ccc(CC(NC(=O)OC2COC3OCCC23)C(O)CN(CC(C)C)S(=O)(=O)c2ccc(OC)cc2)cc1)NC(C)C(=O)OCCCC", "note": "(centres unmarked) [GS-16503]", "values": [{"measurement": "PBMC Extract T1/2", "value": 2, "unit": "min"}, {"measurement": "PBMC Extract T1/2, min", "value": 2, "unit": "min"}, {"measurement": "Dog Plasma T1/2", "setting": "[5]", "value": 368, "unit": "min"}, {"measurement": "Dog Plasma T1/2, min", "setting": "[5]", "value": 368, "unit": "min"}, {"measurement": "intracellular metabolites formed", "setting": "[6]", "value": "Metabolite X and GS-8373"}, {"measurement": "EC50", "setting": "[7]", "value": 0.016, "unit": "µM"}, {"measurement": "Intracellular Acid Metabolite Concentration", "setting": "[8]", "value": "279 ± 47", "unit": "µM"}, {"measurement": "Intracellular Concentration, Acid Metabolite", "setting": "[8]", "value": "279 ± 47", "unit": "µM"}, {"measurement": "Intracellular Concentration, Prodrug", "setting": "[8]", "value": "61 ± 40", "unit": "µM"}, {"measurement": "Intracellular Prodrug", "setting": "[8]", "value": "61 ± 40", "unit": "µM"}, {"measurement": "Intracellular Prodrug and Metabolites Concentration, Total", "setting": "[8]", "value": "340 ± 35", "unit": "µM"}, {"measurement": "Intracellular Prodrug and Metabolites Total", "setting": "[8]", "value": "340 ± 35", "unit": "µM"}, {"measurement": "Major Intracellular Metabolites", "setting": "[8]", "value": "X, GS-8373"}, {"measurement": "Cell-Associated PI, Prodrug", "setting": "[9]", "value": 0, "unit": "pmol/mln cells"}, {"measurement": "composition of metabolites in PBMC", "setting": "[9]", "value": "equimolar mixture of metabolite X and GS-8373"}, {"measurement": "Metabolism (conversion to acid metabolites), dependence on concentration", "setting": "[10]", "value": "concentration-dependent"}, {"measurement": "increase in conversion to acid metabolites at 1 μM vs. 10 μM", "setting": "[10]", "value": 3, "unit": "fold"}, {"measurement": "Human Serum T1/2", "setting": "[11]", "value": ">>400 min"}, {"measurement": "Human Serum T1/2, min", "setting": "[11]", "value": ">>400 min"}, {"measurement": "Total No. of Resistant Viruses", "setting": "[12]; resistance = 5-fold and higher change in EC50 of the mutant relative to wild-type, 11 mutant viruses", "value": 0}]}, {"smiles": "CCOC(=O)C(C)OP(=O)(COc1ccc(C[C@H](NC(=O)O[C@H]2CO[C@H]3OCC[C@H]32)[C@H](O)CN(CC(C)C)S(=O)(=O)c2ccc(OC)cc2)cc1)Oc1ccccc1", "note": "(some centres unmarked) [GS-17394]", "values": [{"measurement": "PBMC Extract T1/2", "value": 15, "unit": "min"}, {"measurement": "PBMC Extract T1/2, min", "value": 15, "unit": "min"}, {"measurement": "Dog Plasma T1/2", "setting": "[5]", "value": 144, "unit": "min"}, {"measurement": "Dog Plasma T1/2, min", "setting": "[5]", "value": 144, "unit": "min"}, {"measurement": "intracellular metabolites formed", "setting": "[6]", "value": "Metabolite LX"}, {"measurement": "Intracellular Acid Metabolite Concentration", "setting": "[8]", "value": "629 ± 303", "unit": "µM"}, {"measurement": "Intracellular Concentration, Acid Metabolite", "setting": "[8]", "value": "629 ± 303", "unit": "µM"}, {"measurement": "Intracellular Concentration, Prodrug", "setting": "[8]", "value": "69 ± 85", "unit": "µM"}, {"measurement": "Intracellular Prodrug", "setting": "[8]", "value": "69 ± 85", "unit": "µM"}, {"measurement": "Intracellular Prodrug and Metabolites Concentration, Total", "setting": "[8]", "value": "698 ± 301", "unit": "µM"}, {"measurement": "Intracellular Prodrug and Metabolites Total", "setting": "[8]", "value": "698 ± 301", "unit": "µM"}, {"measurement": "Cell-Associated PI, Prodrug", "setting": "[9]", "value": 0, "unit": "pmol/mln cells"}, {"measurement": "composition of metabolites in PBMC", "setting": "[9]", "value": "only metabolite LX"}, {"measurement": "Metabolism (conversion to acid metabolites), dependence on concentration", "setting": "[10]", "value": "independent"}, {"measurement": "Human Serum T1/2", "setting": "[11]", "value": 49, "unit": "min"}, {"measurement": "Human Serum T1/2, min", "setting": "[11]", "value": 49, "unit": "min"}]}, {"smiles": "Cc1cccc(C)c1OCC(=O)N[C@@H](Cc1ccccc1)[C@@H](O)C[C@H](Cc1ccccc1)NC(=O)[C@H](C(C)C)N1CCCNC1=O", "note": "[Lopinavir, reference compound]", "values": [{"measurement": "Fold Change in EC50 Relative to WT HIV-1", "setting": "[13]", "value": 9, "unit": "fold"}, {"measurement": "Fold Change in EC50 Relative to WT HIV-1", "setting": "[14]", "value": 11, "unit": "fold"}, {"measurement": "Fold Change in EC50 Relative to WT HIV-1", "setting": "[15]", "value": 19, "unit": "fold"}, {"measurement": "I84V/L90M fold change", "setting": "[16]", "value": "++ (>10 to ≦30)"}, {"measurement": "Fold Change in EC50 Relative to WT HIV-1", "setting": "[17]", "value": 7.5, "unit": "fold"}, {"measurement": "EC50", "setting": "[18]", "value": "< 0.05", "unit": "µM"}, {"measurement": "Total No. of Resistant Viruses", "setting": "[12]; {}", "value": 6}, {"measurement": "Fold Change in EC50 Relative to WT HIV-1", "setting": "[19]", "value": 11, "unit": "fold"}, {"measurement": "Ki", "setting": "[20]", "value": "0.01 to 0.1", "unit": "nM"}, {"measurement": "Fold Change in EC50 Relative to WT HIV-1", "setting": "[21]", "value": 60, "unit": "fold"}, {"measurement": "Fold Change in EC50 Relative to WT HIV-1", "setting": "[22]", "value": 4.5, "unit": "fold"}]}, {"smiles": "CCC[C@@]1(CCc2ccccc2)CC(O)=C([C@H](CC)c2cccc(NS(=O)(=O)c3ccc(C(F)(F)F)cn3)c2)C(=O)O1", "note": "[Tipranavir, reference compound]", "values": [{"measurement": "Fold Change in EC50 Relative to WT HIV-1", "setting": "[23]", "value": 3.5, "unit": "fold"}, {"measurement": "Fold Change in EC50 Relative to WT HIV-1", "setting": "[13]", "value": 1, "unit": "fold"}, {"measurement": "Fold Change in EC50 Relative to WT HIV-1", "setting": "[14]", "value": 5, "unit": "fold"}, {"measurement": "Fold Change in EC50 Relative to WT HIV-1", "setting": "[15]", "value": 0.5, "unit": "fold"}, {"measurement": "I84V/L90M fold change", "setting": "[16]", "value": "+ (>3 to ≦10)"}, {"measurement": "Fold Change in EC50 Relative to WT HIV-1", "setting": "[24]", "value": 0.4, "unit": "fold"}, {"measurement": "Fold Change in EC50 Relative to WT HIV-1", "setting": "[17]", "value": 3, "unit": "fold"}, {"measurement": "EC50", "setting": "[18]", "value": "0.05 to 0.5", "unit": "µM"}, {"measurement": "Total No. of Resistant Viruses", "setting": "[12]; {}", "value": 1}, {"measurement": "Fold Change in EC50 Relative to WT HIV-1", "setting": "[25]", "value": 0.5, "unit": "fold"}, {"measurement": "Fold Change in EC50 Relative to WT HIV-1", "setting": "[21]", "value": 2, "unit": "fold"}, {"measurement": "Fold Change in EC50 Relative to WT HIV-1", "setting": "[22]", "value": 0.3, "unit": "fold"}]}]}
